In ChEMBL document CHEMBL2321872, “Synthesis and antimycobacterial activity of 2,1'-dihydropyridomycins” (ACS Med Chem Lett, 2013) one finds MIC data, which are given here for 3 compounds.

The assay has as its system Mycobacterium tuberculosis. Briefly: Antimycobacterial activity against Mycobacterium tuberculosis H37Rv assessed as growth inhibition after 7 days by resazurin method. In kind it is functional. Conditions: 168 h. (In general: The colour change of resazurin is a common sign of viable cells or microbes.)

Molecules are shown by their SMILES. In brackets after ≈: the same amount, converted by molar mass.

On to `CC(C)[C@H]1OC(=O)[C@H](C)[C@H](O)[C@H](Cc2cccnc2)NC(=O)[C@@H](NC(=O)c2ncccc2O)[C@@H](C)OC1=O`, for which the minimum inhibitory concentration (MIC) amounted to 1.56 µg/mL (≈ 2.95 µM).
For `CC(C)[C@@H]1OC(=O)[C@H](C)[C@H](O)[C@H](Cc2cccnc2)NC(=O)[C@@H](NC(=O)c2ncccc2O)[C@@H](C)OC1=O`, the minimum inhibitory concentration (MIC) worked out at 12.5 µg/mL (≈ 23.6 µM).
Turning to `CC/C(C)=C1\OC(=O)[C@H](C)[C@H](O)[C@H](Cc2cccnc2)NC(=O)[C@@H](NC(=O)c2ncccc2O)[C@@H](C)OC1=O` [PYRIDOMYCIN], the MIC is 0.39 µg/mL (≈ 0.721 µM).

By MIC is commonly meant the least concentration at which growth counts as inhibited.
